{"source": "patent US9539367B2", "about": "“Gallium inhibits biofilm formation” (priority 2003, dated 2017)", "key": {"[1]": {"system": "intraphagosomal M. tuberculosis", "test": "59Fe acquisition by M. tuberculosis within macrophage phagosomes", "assay_type": "cell-based", "conditions": "10 μM Ga(NO3)3; 59Fe transferrin", "experimental": "FIG. 6. Ga-transferrin inhibits Fe acquisition by M. tuberculosis within macrophage phagosomes in a concentration-dependent manner. ^59Fe transferrin (10 μM) was added to M. tuberculosis-containing MDMs in the absence (control) or the presence of the indicated concentrations of Ga-transferrin for 24 h MDMs were lysed, and the lysates were filtered through a 0.22-μm (pore-size) filter. M. tuberculosis-associated radioactivity (expressed in cpm) on the filter was determined. Shown are the cpm values as a function of the Ga concentration added from a representative experiment.\nFe-TF is the major form of extracellular Fe, and transport of exogenously added TF to the M. tuberculosis-containing phagosome of human macrophages (Clemens et al., 1996) has been observed. It was therefore hypothesized that gallium competes with Fe uptake by bacteria dividing within the phagosome. […] This was not due to differences in total MDM ^59Fe.\nIn two recent preliminary experiments, MDM monolayers were preloaded with either ^59Fe or ^67Ga or both (pulse/chase, 24 h each). Erdman M. tuberculosis was then added. After 48 h, bacteria isolated from the phagosome were assessed for associated iron or gallium. Each metal could be found specifically associated with the bacteria."}, "[2]": {"system": "P. aeruginosa", "test": "P. aeruginosa growth in 1:100 strength TSB medium (A600)", "conditions": "batch culture", "quoted_text": "Effect of gallium on the growth of P. aeruginosa. Bacteria were inoculated in 1:100 strength TSB medium with the indicated concentrations of gallium and grown at 37° C. with shaking. Growth was monitored as the change in A600 over 15 h."}, "[3]": {"system": "P. aeruginosa biofilm", "test": "Biofilm formation of GFP-labeled P. aeruginosa in continuous culture flow cells", "assay_type": "cell-based"}, "[4]": {"conditions": "patients with cancer-related hypercalcemia; cited from earlier work"}, "[5]": {"system": "established biofilms", "test": "Killing of established three-day-old biofilms, viability by propidium iodide", "assay_type": "cell-based, P. aeruginosa", "conditions": "10 μM, 100 μM, 1000 μM; 12, 24, 48, 72 hours", "experimental": "FIGS. 10A-10D. Gallium kills established biofilms. Three-day-old biofilms were exposed to gallium in concentrations of 10 μM, 100 μM, and 1000 μM. Biofilm viability was assessed with propidium iodide, and observations were recorded at 12 hours (FIG. 10A), 24 hours (FIG. 10B), 48 hours (FIG. 10C), and 72 hours (FIG. 10D).\nThree-day-old biofilms were exposed to gallium in concentrations of 10 μM, 100 μM, and 1000 μM. The biofilm viability was assessed with propidium iodide, and observations were recorded at 12 hours (FIG. 10A), 24 hours (FIG. 10B), 48 hours (FIG. 10C), and 72 hours (FIG. 10D)."}, "[6]": {"target": "IdeR (Mycobacterium tuberculosis, UniProt P9WMH1)", "sequence (P9WMH1 whole entry, the tested form may be a part)": "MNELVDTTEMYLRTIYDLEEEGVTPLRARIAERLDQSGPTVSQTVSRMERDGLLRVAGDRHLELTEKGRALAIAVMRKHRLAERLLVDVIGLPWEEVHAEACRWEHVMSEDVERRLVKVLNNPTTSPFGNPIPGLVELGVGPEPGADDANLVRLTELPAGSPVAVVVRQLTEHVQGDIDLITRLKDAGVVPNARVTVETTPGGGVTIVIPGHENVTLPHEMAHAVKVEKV", "test": "IdeR DNA binding, gel mobility shift assay with HisE promoter region", "design": "species or system M. tuberculosis", "conditions": "for IdeR binding to HisE promoter DNA fragment: 200 μM", "text": "The iron regulatory element, IdeR, regulates the production of catalase, SOD, and siderophores in mycobacteria (Dussurget et al., 1996) in a manner analogous to P. aeruginosa Fur. In order for DNA binding to occur, IdeR must be complexed with a divalent metal such as Fe^2+ or Ni^2+. The effect of Ga(NO3)3 on the binding (gel mobility shift assay) of IdeR was examined using the HisE promoter region from M. tuberculosis that contains a high affinity IdeR binding site (Schmitt et al., 1995). […] A similar lack of binding of Ga^3+ to P. aeruginosa Fur is expected based on these findings."}, "[7]": {"system": "P. aeruginosa strain PA01", "test": "P. aeruginosa growth in iron-supplemented succinate media (A600)", "assay_type": "cell-based", "conditions": "100 nM gallium", "experimental": "FIG. 7. P. aeruginosa was inoculated to an OD (A600) of about 0.010 into succinate media alone or with FeCl3 supplementation +/− the Ga chelates.\nP. aeruginosa growth is dependent on the addition of exogenous Fe (FIG. 7). […] When gallium, either in the form of Ga(NO3)3 or Ga-TF, was added to iron-supplemented succinate media at concentrations ≧1 μM, a gallium concentration-dependent inhibition of P. aeruginosa growth was observed (FIG. 7). […] Similar results were observed under different conditions (see below)."}, "[8]": {"target": "T1, M. tuberculosis RR (Mycobacterium tuberculosis, UniProt P9WH71)", "T1 sequence (P9WH71 whole entry)": "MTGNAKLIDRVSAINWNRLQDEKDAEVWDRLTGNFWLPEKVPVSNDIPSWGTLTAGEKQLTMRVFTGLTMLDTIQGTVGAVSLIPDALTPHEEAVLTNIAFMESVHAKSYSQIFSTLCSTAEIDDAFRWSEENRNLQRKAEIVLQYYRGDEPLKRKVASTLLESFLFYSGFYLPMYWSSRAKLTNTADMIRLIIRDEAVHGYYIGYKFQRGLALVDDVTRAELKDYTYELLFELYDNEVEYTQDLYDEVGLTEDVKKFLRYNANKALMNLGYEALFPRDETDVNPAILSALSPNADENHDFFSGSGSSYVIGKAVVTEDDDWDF", "test": "Radiolabeled CDP reduction assay for ribonucleotide reductase activity", "assay_type": "biochemical", "conditions": "n=2; read-out: concentration that inhibited RR activity by 50%"}, "[9]": {"system": "Erdman M. tuberculosis", "test": "59Fe acquisition by M. tuberculosis in 7H9 medium", "assay_type": "cell-based", "conditions": "500 nM 59Fe-citrate, 6 h", "experimental": "FIGS. 4A-4B. […] Erdman M. tuberculosis (2×10^7 ml) was incubated for 6 h in 7H9 medium (without added Fe and OADC) with 500 nM ^59Fe-citrate (FIG. 4A) or ^67Ga-citrate (FIG. 4B) in the absence or presence of the indicated concentrations of cold competing metal. The bacteria were then washed repeatedly, and bacterium-associated ^67Ga or ^59Fe levels were determined. Results are shown as the amount of metal acquired as a function of increasing concentrations of the cold competing metal. Experimental groups were performed in triplicate, and the data shown represent three independent experiments (mean±SEM)."}, "[10]": {"system": "M. tuberculosis within human monocyte-derived macrophages (MDM)", "assay_type": "cell-based"}, "[11]": {"conditions": "human, in vivo; read-out: peak levels achieved clinically; cited from earlier work"}, "[12]": {"system": "Erdman M. tuberculosis", "assay_type": "cell-based", "conditions": "liquid media"}, "[13]": {"target": "T1, M. tuberculosis RR", "conditions": "Yang et al., 1997; read-out: IC50, RR inhibition; cited from earlier work"}, "[14]": {"system": "P. aeruginosa", "conditions": "cited from earlier work"}}, "note": "Like-named read-outs stand apart in the source and are kept apart here."}
{"compound": "O=[N+]([O-])[O-].O=[N+]([O-])[O-].O=[N+]([O-])[O-].[Ga+3]", "note": "[Ga(NO3)3, gallium nitrate]", "values": [{"measurement": "59Fe acquisition by intraphagosomal M. tuberculosis", "setting": "[1]", "value": "markedly decreased"}, {"measurement": "concentration above which growth rate of P. aeruginosa significantly decreased", "setting": "[2]", "value": "exceeded 1 μM"}, {"measurement": "effect on P. aeruginosa biofilm formation", "setting": "[3]; 0.3 μM Ga(NO3)3 (sub-inhibitory), up to 4 days", "value": "subsequent steps in biofilm formation were inhibited"}, {"measurement": "tolerability", "setting": "[4]", "value": "well tolerated"}]}
{"compound": "[Ga+3]", "note": "[gallium]", "values": [{"measurement": "killing of established biofilms", "setting": "[5]", "value": "kills established biofilms in a time and concentration dependent manner"}, {"measurement": "interference with Ni2+ or Fe2+ activation of IdeR binding", "setting": "[6]", "value": "did not interfere"}, {"measurement": "IdeR binding to HisE promoter DNA fragment", "setting": "[6]", "value": "did not lead to IdeR binding"}, {"measurement": "effect on P. aeruginosa growth", "setting": "[7]", "value": "did not inhibit growth"}, {"measurement": "IC50", "setting": "[8]", "value": 450, "unit": "µM"}, {"measurement": "competition for M. tuberculosis acquisition of 59Fe", "setting": "[9]", "value": "highly effective in competing"}, {"measurement": "bactericidal activity for M. tuberculosis", "setting": "[10]; extracellularly and even more so intracellularly in macrophages", "value": "bactericidal"}, {"measurement": "Cmax", "setting": "[11]", "value": "140 to 700", "unit": "µM"}]}
{"compound": "O=[N+]([O-])[O-].[Na+]", "note": "[NaNO3, reference compound]", "values": [{"measurement": "effect on mycobacterial growth within macrophages", "setting": "[10]; nitrate control", "value": "no effect"}]}
{"compound": "CC(C)(O/N=C(\\C(=O)N[C@@H]1C(=O)N2C(C(=O)[O-])=C(C[n+]3ccccc3)CS[C@H]12)c1csc(N)n1)C(=O)O", "note": "[ceftazidime, reference compound]", "values": [{"measurement": "effect on P. aeruginosa biofilm development", "setting": "[3]; sub-inhibitory concentration, 0.25 μg/ml", "value": "did not inhibit biofilm development"}]}
{"compound": "Ga-TF: gallium chelated by serum transferrin (TF)", "values": [{"measurement": "inhibiting mycobacterial growth compared with Ga(NO3)3", "setting": "[12]", "value": "as effective as Ga(NO3)3"}, {"measurement": "inhibiting mycobacterial growth compared with Ga(NO3)3", "setting": "[10]; within human macrophages", "value": "as effective as Ga(NO3)3"}]}
{"compound": "NC(=O)NO", "note": "[hydroxyurea]", "values": [{"measurement": "IC50", "setting": "[13]", "value": "3000 to 5000", "unit": "µM"}]}
{"compound": "[Ni+2]", "note": "[Ni^2+, reference compound]", "values": [{"measurement": "IdeR binding to HisE promoter DNA fragment", "setting": "[6]", "value": "binding was observed"}]}
{"compound": "NC[C@H]1O[C@H](O[C@H]2[C@H](O)[C@@H](O[C@H]3O[C@H](CO)[C@@H](O)[C@H](N)[C@H]3O)[C@H](N)C[C@@H]2N)[C@H](N)C[C@@H]1O", "note": "[tobramycin]", "values": [{"measurement": "reduction of biofilm cell counts", "setting": "[14]; levels far in excess of the MIC, biofilm cells", "value": "approximately 2 logs"}, {"measurement": "decrease in planktonic cells", "setting": "[14]; same dosage, planktonic cells", "value": "> 8", "unit": "log"}]}
